The target of one data set is T1, full length HuR (Homo sapiens, UniProt Q15717).
T1 construct: made in house; host or cells: E. coli ER2566
In words: Deduction of the HuR binding site: affinities of RNA fragments to full length HuR. Here is the method: Individual RNA fragments are synthesized and the affinities (given as Kd values) to full length HuR are determined (see TABLE 2). […] An influence of the fluorescent dye is excluded by competition experiments with unlabeled RNA fragments. […] Fragments 5, 6, 7a-7d and 8a-8c serve to tests tolerance for non-Uracil (exemplified by A=adenine) and C, respectively, at the depicted (bold and underlined) positions. […] This interaction appears to follow an all-or-nothing mechanism: While sequences with single mismatches are not recognized, sequences fulfilling this motif are bound with high affinity and an invariable Kd, Kdfund, of 0.99 nM.

The nature of data set [1]: Solubility: no aggregation and precipitation in aqueous buffer (size exclusion chromatography and/or UV-spectroscopy). It is filed as physicochemical. The settings on record: aqueous buffer of physiological pH; for concentration at which no aggregation and precipitation is seen: spectroscopy-compatible conditions. As to the method:
The concentration of protein used in an assay of the present invention depends on the binding affinity between a specific mRNA (fragment) and HuR, e.g. the protein concentration used in an assay of the present invention may be lower in case there is a high binding affinity between the two species or vice versa. Solvent include aqueous solvent, e.g. buffer solution, e.g. aqueous physiological buffer solution.
Expression of the cloned HuR-Intein-CBD fusion protein is induced by addition of 1 mM IPTG to a bacterial culture grown to late-logarithmic phase in LB broth medium and allowed to proceed for 6 hours at 28°. The bacterial cells are lysed by successive freezing/thawing cycles in a buffer of 20 mM Tris/Cl pH 8.0, 800 mM NaCl, 1 mM EDTA and 0.2% Pluronic F-127 (Molecular Probes). After DNA digestion, the bacterial lysates are cleared by ultracentrifugation and the fusion protein is captured onto chitin agarose beads (New England Biolabs) via the CBD. After extensive washing of the beads with lysis buffer, the recombinant protein is recovered by thiol-induced on-column self-splicing of the intein tag by addition of Na-2-MESNA to a final concentration of 50 mM and incubation for 12 hours at 4°. Any co-eluted intein tag and un-cleaved fusion protein are removed from the eluate in a second, subtractive affinity step. […]
The quality of the purified protein is controlled by denaturing SDS-PAGE, UV-spectroscopy, analytical Size Exclusion Chromatography, RP-HPLC analysis, LC/ESI-MS analysis and CD-spectroscopy, following standard protocols as described in example 2. […] Results from UV-spectroscopy, showing no absorbance at >330 nm, and analytical size exclusion chromatography, where HuR elutes as a single peak with a maximum at 24.2 kD, provide evidence that no higher aggregation states of the protein are present at the given buffer concentrations.
The folding of the protein after the purification procedure as well as following fluorescent labeling is monitored by CD-Spectroscopy.

In data set [2] the target is T2, sfl-HuR (soluble form of full length HuR) (Homo sapiens, UniProt Q15717).
T2 construct: made in house; host or cells: E. coli ER2566
In words: 2D-FIDA-r anisotropy assay: titration of fluorescently labeled ARE RNA fragments against sfl-HuR. The class given is binding. The following applies: 2D-FIDA-r assay, RNA fragment 5'-terminally labeled with 5'-carboxy-TMR; for Kd: read-out: Kd sfl-HuR in nM +/- St. dev. As to the method:
(§1) In a preferred embodiment an assay of the present invention is performed by use of 2 dimensional-FIDA anisotropy analysis, wherein the fluorescence anisotropy of the complex between mRNA and HuR is determined at single molecule sensitivity by extension of the microscopic confocal detection setup to two polarisation channels.
(§2) Titration of fluorescently labeled RNA fragments corresponding to the AREs of, for example, IL-2, IL-4, IL-8, Cox-2, IL-1β or TNF-α (5′-terminally labeled with 5′-carboxy-TMR and 33, 58, 26, 35, 33 and 34 nts in length, respectively), against increasing concentrations of a soluble form of recombinant full-length HuR or HuR12 is performed.
(§3) In vitro, individual AU rich elements are bound to HuR with different affinity, although they are derived from mRNA targets which are known to be associated with HuR-mediated regulation. This fragment selectivity is retained when the third RRM as well as the hinge region are missing as is the case for HuR12. […] However, the full length protein binds to all fragments with a higher affinity. The Kd is lower by an almost constant factor of 50. In contrast, the low affinity fragments (Kd for HuR12>1 μM) are no longer recognized by the full length protein at all (see TABLE 1).

The target of a further data set is T3, HuR12 (Homo sapiens, UniProt Q15717).
T3 construct: Mxe-intein-CBD tag (IMPACT-TWIN, pTWIN1) (C, cleaved yes); 2-MESNA thioester on the C-terminal carboxyl group (>95% of the material); made in house; host or cells: E. coli ER2566 (pTWIN1/HuR12)
In words: 2D-FIDA-r anisotropy assay: titration of fluorescently labeled ARE RNA fragments against HuR12. The class given is binding. The settings on record: 2D-FIDA-r assay, RNA fragment 5'-terminally labeled with 5'-carboxy-TMR; for Kd: read-out: Kd HuR12 in nM +/- St. dev. As to the method:
as §1, §2, §3

T2 sequence (Q15717 whole entry): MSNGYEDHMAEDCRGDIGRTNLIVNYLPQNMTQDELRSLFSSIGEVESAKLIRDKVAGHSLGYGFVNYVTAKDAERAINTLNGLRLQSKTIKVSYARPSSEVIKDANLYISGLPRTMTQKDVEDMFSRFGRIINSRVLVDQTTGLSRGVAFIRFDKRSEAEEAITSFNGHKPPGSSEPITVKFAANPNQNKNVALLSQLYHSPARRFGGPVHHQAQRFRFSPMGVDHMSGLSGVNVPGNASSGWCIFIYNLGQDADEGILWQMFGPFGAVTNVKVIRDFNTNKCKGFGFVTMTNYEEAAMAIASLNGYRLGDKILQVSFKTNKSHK
T1 sequence (Q15717 whole entry): as above
T3 sequence (Q15717 2-189): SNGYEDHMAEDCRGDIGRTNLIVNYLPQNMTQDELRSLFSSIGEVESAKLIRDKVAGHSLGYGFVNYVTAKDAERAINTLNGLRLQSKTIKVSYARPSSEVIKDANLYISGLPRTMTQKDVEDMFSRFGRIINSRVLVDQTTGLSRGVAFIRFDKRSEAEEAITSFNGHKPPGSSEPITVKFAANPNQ

With “4c (AUUUAUUUAUUUA; chemistry not given here)”, the “Kd (in nM)” value with full length HuR (binding to full length HuR) is reported as “not bound”.
Consider polyU [reference compound], for which, on full length HuR (full length HuR), the “binding / recognition by HuR (in words)” value was “bound by HuR with high affinity”.
“sfl-HuR: full-length human HuR (SEQ ID NO:1 or 2) whose C-terminal amino acid is esterified by Na-2-MESNA as a thioester”: the “concentration at which no aggregation and precipitation is seen” value in data set [1] is over 0.5 µM.
With “HuR12: HuR variant encompassing the first two RRMs, aa1-189 or aa2-189 of SEQ ID NO:1”, in data set [1], the “concentration at which no aggregation and precipitation is seen” value is over 100 µM.
Turning to “UAUUUAUUUAAAUAUUUAAAUUUUAUAUUUAUU (chemistry not given here) [IL-2, synthetic RNA fragment of the IL-2 ARE, 5'-TMR labeled]”, the Kd in data set [2] amounted to 9.5 nM; in the data set with HuR12, 498 nM.
“UAGAGUUCAUCGCAAUUGCAC (chemistry not given here) [irrelevant seq., reference compound]”: in data set [2], the “Kd sfl-HuR in nM +/- St. dev.” value was “n.b”. Further, the “Kd HuR12 in nM +/- St. dev.” value with HuR12 is listed as “n.b”.
Regarding “4d (AUUUAUUUAUUUA; chemistry not given here)”, in the data set with full length HuR (binding to full length HuR), the “Kd (in nM)” value is “not bound”.
With “4a (AUUUAUUUAUUUA; chemistry not given here)”, in the data set with full length HuR (binding to full length HuR), the Kd amounted to 1.4 nM and the “Kd (in nM)” value is reported as “not bound”.
Turning to “AUUUAUUUAUUUAUUUAUUUA (chemistry not given here) [(AUUU)5A]”, the figures for the Kd (in data set [2]; with HuR12) were 0.4 nM and 23.5 nM, respectively.
As to “AUUUUAAUUUAUGAGUUUUUGAUAGCUUUAUUUUUUAAGUAUUUAUAUAUUUAUAA (chemistry not given here) [IL-4, synthetic RNA fragment of the IL-4 ARE, 5'-TMR labeled]”, the Kd in data set [2] is 3.21 nM; in the data set with HuR12 it was 154 nM.
For the substance “AUUAUUUAUUAUUUAUUUAUUAUUUAUUUAUUUA (chemistry not given here) [TNF-α, synthetic RNA fragment of the TNF-α ARE, 5'-terminally labeled with 5'-carboxy-TMR]”, the Kd in data set [2] came to 0.35 nM; with HuR12, 21.4 nM.
Regarding “UAUUUAUUAUUUAUGUAUUUAUUUAA (chemistry not given here) [IL-8, synthetic RNA fragment of the IL-8 ARE, 5'-TMR labeled]”, the Kd in data set [2] came out at 1.09 nM; with HuR12, 42.9 nM.
Regarding “UAUUAAUUUAAUUAUUUAAUAAUAUUUAUAUUAAA (chemistry not given here) [Cox-2 (2), synthetic RNA fragment of the Cox-2 ARE, 5'-TMR labeled]”, the Kd in data set [2] was found to be 13.6 nM; in the data set with HuR12, 229 nM.
For “wild-type full length HuR: unmodified wild-type full length HuR protein”, the “solubility in aqueous solvent (in words)” value in data set [1] (without micelle-forming detergents or glycerol, protein >0.5 μM) is “practically insoluble”.
Consider “AUUUAUUUAUUUAUUUA (chemistry not given here) [(AUUU)4A]”, for which the figures for the Kd (in data set [2]; with HuR12) were 2.09 nM and 126 nM, respectively.
Consider “AUUAUUAUUAUUAUUA (chemistry not given here) [(AUU)5A]”, for which the “Kd sfl-HuR in nM +/- St. dev.” value in data set [2] is “n.b”. Also, in the data set with HuR12, the Kd was determined as 1590 nM.
With “UAUUUAUUUAUUUAUUUGUUUGUUUGUUUUAUU (chemistry not given here) [IL-1β, synthetic RNA fragment of the IL-1β ARE, 5'-TMR labeled]”, the values for the Kd (in data set [2]; with HuR12) were 0.12 nM and 18.4 nM, respectively.

(Values after patent US7399583B2, “Method for the identification of inhibitors of the binding of ARE-containing mRNA and a HuR protein” (Novartis AG, priority 2002, dated 2008).)
